Experimental findings from ChEMBL document CHEMBL1132589, “Phosphotyrosine-containing dipeptides as high-affinity ligands for the p56lck SH2 domain” (J Med Chem, 1999) are described below.

The pKd is −log10 of the Kd, conventionally taken in molar units. Lower therefore signals a large Kd.

Structures are written as SMILES. pKd: −log10 of the molar value. Where a SMILES comes first, the peptide text is derived from it. [ ]: non-standard residue; d: D form. The star is where a group is joined. pY = N[C@@H](Cc1ccc(OP(=O)(O)O)cc1)C(=O)O; NHPhenethyl = c1ccc(CCN*)cc1; NHBn = c1ccc(CN*)cc1; NHPh = c1ccc(N*)cc1

For the assay, the target named is Tyrosine-protein kinase Lck (Homo sapiens, UniProt P06239).
Tyrosine-protein kinase Lck, sequence (P06239 whole entry): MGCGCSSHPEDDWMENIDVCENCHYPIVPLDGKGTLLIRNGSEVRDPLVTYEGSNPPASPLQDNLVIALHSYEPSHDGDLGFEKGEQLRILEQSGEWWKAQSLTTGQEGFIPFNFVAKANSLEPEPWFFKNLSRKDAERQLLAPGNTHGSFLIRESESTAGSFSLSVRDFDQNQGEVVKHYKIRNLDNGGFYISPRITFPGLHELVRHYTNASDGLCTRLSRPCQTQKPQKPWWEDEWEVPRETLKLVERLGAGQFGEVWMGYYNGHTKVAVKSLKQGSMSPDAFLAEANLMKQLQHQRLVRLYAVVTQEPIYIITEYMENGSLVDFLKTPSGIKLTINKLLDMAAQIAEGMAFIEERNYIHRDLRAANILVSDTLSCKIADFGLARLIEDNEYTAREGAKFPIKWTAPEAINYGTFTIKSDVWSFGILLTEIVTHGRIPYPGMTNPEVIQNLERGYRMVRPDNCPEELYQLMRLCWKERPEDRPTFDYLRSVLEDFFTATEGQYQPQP

Description: Binding affinity against p56 Lck tyrosine kinase SH2 domain was measured using glutathione S-transferase (GST) fusion protein

As for `CC(=O)N[C@@H](Cc1ccc(OP(=O)(O)O)cc1)C(=O)N[C@@H](CC(C)C)C(=O)NCc1cccnc1`, the pKd was 4.47.

With `CC(=O)N[C@@H](Cc1ccc(OP(=O)(O)O)cc1)C(=O)N[C@@H](CC(C)C)C(=O)NCc1ccncc1`, the pKd is 4.80.

Regarding `CC(=O)N[C@@H](Cc1ccc(OP(=O)(O)O)cc1)C(=O)N[C@@H](CC(C)C)C(=O)NCc1ccc(C(C)(C)C)cc1`, the negative-log Kd (pKd) was 5.10.

In the case of `CC(=O)N[C@@H](Cc1ccc(OP(=O)(O)O)cc1)C(=O)N[C@@H](CC(C)C)C(=O)N[C@@H](C)c1ccc(C)cc1`, the pKd was 5.82.

With `CC(=O)N[C@@H](Cc1ccc(OP(=O)(O)O)cc1)C(=O)N[C@@H](CC(C)C)C(=O)NCc1ccccn1`, the pKd is 4.51.

In turn, `COc1ccc(CNC(=O)[C@H](CC(C)C)NC(=O)[C@H](Cc2ccc(OP(=O)(O)O)cc2)NC(C)=O)cc1OC` showed a negative-log Kd (pKd) of 4.92.

As to `COc1ccc(CNC(=O)[C@H](CC(C)C)NC(=O)[C@H](Cc2ccc(OP(=O)(O)O)cc2)NC(C)=O)cc1`, the pKd was 5.82.

`CC(=O)N[C@@H](Cc1ccc(OP(=O)(O)O)cc1)C(=O)N[C@@H](CC(C)C)C(=O)NCc1ccc(C)cc1`: the pKd is 5.60.

As to `CC(=O)N[C@@H](Cc1ccc(OP(=O)(O)O)cc1)C(=O)N[C@@H](CC(C)C)C(=O)N[C@H](C)c1ccc(C)cc1`, the pKd was 4.57.

Take `CC(=O)N[C@@H](Cc1ccc(OP(=O)(O)O)cc1)C(=O)N[C@@H](CC(C)C)C(=O)N(C)Cc1ccc(C)cc1`: the pKd is 5.70.

Molecule `CC(=O)N[C@@H](Cc1ccc(OP(=O)(O)O)cc1)C(=O)N[C@@H](CC(C)C)C(=O)NCc1ccc(C(C)C)cc1` showed a negative logarithm of the Kd (pKd) of 6.10.

Molecule `CC(=O)N[C@@H](Cc1ccc(OP(=O)(O)O)cc1)C(=O)N[C@@H](CC(C)C)C(=O)N[C@@H](C)c1ccc(C(C)C)cc1` had a pKd of 6.70. This pKd is 0.60 log units higher than that of the molecule before.

Molecule `CC(=O)N[C@@H](Cc1ccc(OP(=O)(O)O)cc1)C(=O)N[C@@H](CC(C)C)C(=O)NCc1ccc(N(C)C)cc1` gave a pKd of 4.70.

For the molecule `COc1ccccc1CNC(=O)[C@H](CC(C)C)NC(=O)[C@H](Cc1ccc(OP(=O)(O)O)cc1)NC(C)=O`, the pKd was 4.77.

`COc1ccc(CNC(=O)[C@H](CCC(=O)O)NC(=O)[C@H](Cc2ccc(OP(=O)(O)O)cc2)NC(C)=O)cc1` gave a pKd of 6.70.

Molecule `COc1cccc(CNC(=O)[C@H](CC(C)C)NC(=O)[C@H](Cc2ccc(OP(=O)(O)O)cc2)NC(C)=O)c1` had a pKd of 5.05.

Regarding `CC(=O)N[C@@H](Cc1ccc(OP(=O)(O)O)cc1)C(=O)N[C@@H](CCC(=O)O)C(=O)Nc1ccccc1` (Ac-[pY]-Glu-NHPh), the pKd is 5.10.

Regarding `CC(=O)N[C@@H](Cc1ccc(OP(=O)(O)O)cc1)C(=O)N[C@@H](CCC(=O)O)C(=O)NCCc1ccccc1` (Ac-[pY]-Glu-NHPhenethyl), the pKd is 5.40.

`CC(=O)N[C@@H](Cc1ccc(OP(=O)(O)O)cc1)C(=O)N[C@@H](CC(C)C)C(=O)NCc1ccccc1` (Ac-[pY]-Leu-NHBn) showed a pKd of 4.80.
